# Results: US10596160B2, “Compositions, methods and uses for the treatment of diabetes and related conditions by controlling blood glucose level” (PHARNEXT, priority 2012, dated 2020)
# Entries after “also recorded” stand apart in the source; their conditions may differ.
# Tests used:
# [1] = test system: beta pancreatic INS-1 cells; experiment: Insulin secretion in response to glucose stimulation; format: cell-based, rat
# Procedure: The cells are cultured in complete medium, RPMI 1640 10 mM glucose supplemented with 1 mM sodium pyruvate, 50 μM 2-mercaptoethanol, 2 mM glutamine, 10 mM HEPES, 100 IU/mL penicillin, 100 μg/mL streptomycin and 10% heat-inactivated fetal calf serum (FCS), as described by Asfari et al. (23). […] After 3 days of culture at 37° C. in a humidified atmosphere of 95% air/5% CO2, the medium is removed and cells are cultured for 16 h in a medium containing 5 mM glucose, 1% FCS (and the tested drugs for long-term evaluation).
# The cells are washed again with KRBH and incubated for 1 h in KRBH 0.1% BSA containing 3.5 mM glucose and the tested molecules.
# Standards, samples and controls are added to the appropriate wells with a horseradish peroxidase enzyme-labeled monoclonal antibody (conjugate). After incubation, the microplates are washed to remove unbound conjugate and a TMB substrate solution is added to react with the bound conjugate. Finally, after addition of a stop solution, the optical density is measured at 450 nm using a reference wavelength of 620 nm. The intensity of the yellow color is directly proportional to the amount of insulin within the samples.
# [2] = test system: TNFα-induced insulin resistant 3T3-L1 differentiated adipocytes; experiment: Glucose uptake in TNFα-induced insulin resistant 3T3-L1 differentiated adipocytes; format: cell-based; conditions: for enhancement of glucose uptake, combination experiment / enhancement of glucose uptake, combination with metformin: vs TNFα cells; for enhancement of glucose uptake, combination experiment: Dunnett's test; for enhancement of glucose uptake: drug alone, vs non-treated insulin-resistant cells (TNFα); for enhancement of glucose uptake, combination with metformin: combined or alone at the same concentrations
# Procedure: 3T3L1 fibroblasts were maintained in DMEM 4.5 g/L glucose supplemented with 5% calf serum donor, 5% newborn calf serum, 100 U/mL penicillin, and 100 μg/mL streptomycin at 37° C. under a 10% CO2 atmosphere. Cells were grown on 24-well plates at a density of 2560 cells/well in 0.5 mL of growth medium (DMEM 4.5 g/L glucose supplemented with 10% FCS, 100 U/mL penicillin, and 100 μg/mL streptomycin). […] Fresh media were replaced after two days.
# Glucose uptake was measured by quantification of incorporated radiolabeled glucose, after an incubation step with 2-deoxy-D[1,2^3H] glucose for 5 min. Glucose uptake was arrested by two washing steps in ice-cold PBS 1×, then were solubilized in 0.1N NaOH for 30 min. Cell-associated radioactivity was then counted using a MicroBeta counter after adding 600 μL per well of scintillant (Optiphase SuperMix3).
# In parallel, protein quantification was determined by a colorimetric assay derived from the Lowry method. Results are expressed in nmol of glucose incorporated/5 mn/mg of protein and in % of control or basal condition (100%).
# [3] = test system: beta pancreatic INS-1 cells; experiment: Prevention of beta cells apoptosis (ssDNA apoptosis detection kit); format: cell-based; set-up: concentration or dose not given beside the values; conditions: 1 h pre-incubation then 24 h in apoptotic conditions, drugs tested alone
# Procedure: The beta pancreatic INS-1 cells have been selected for this study. The cells are cultured in complete medium, RPMI 1640 10 mM glucose supplemented with 1 mM sodium pyruvate, 50 μM 2-mercaptoethanol, 2 mM glutamine, 10 mM HEPES, 100 IU/mL penicillin, 100 μg/mL streptomycin and 10% heat-inactivated fetal calf serum (FCS), as described by Asfari et al. (23). INS-1 cells are plated (4.5×10^4 cells/well) in 96-well poly-ornithine coated plates and cultured at 37° C. in a humidified atmosphere of 95% air/5% CO2. The day after, cells are pre-incubated with the tested molecules for 1 h. Then, after a medium change, cells are cultured for 24 h in a medium containing the tested molecules and 30 mM glucose, 0.05 mM myristic acid, 25 ng/mL INF, 25 ng/mL TNF and 5 ng/mL IL.
# The efficacy of compounds to prevent apoptosis is then evaluated by the highly specific apoptosis detection kit from Chemicon (Ref. APT225). This procedure is based on the detection of single-stranded DNA (ssDNA) which is a specific marker of apoptotic cells (24).
# Results are expressed in optical density (OD) arbitrary unit and % of reduction of the apoptosis induced by apoptotic condition. Following a Dunnett t-test, all compounds showing a significant decrease in % of apoptotic cells compared to apoptotic control conditions are considered active.
# [4] = test system: H-2 Kb mouse muscle cells; experiment: Glucose uptake in mouse muscle cells; format: cell-based; conditions: H-2 Kb cells, vs non-treated cells
# Procedure: For differentiation in […], cells are switched to non-permissive culture conditions (37° C. in a humidified atmosphere of 95% air/5% CO2; DMEM 5.5 mM D-glucose supplemented with 2% FCS, 10% horse serum, 2% glutamine, 1% chicken embryo, 100 U/mL penicillin, and 100 μg/mL streptomycin).
# For long-term effect evaluation, the day before glucose uptake assay, cells are incubated in DMEM 5.5 mM D-glucose supplemented with 10% horse serum, 2% SVF, 1% chicken embryo, and 2% glutamine in the presence of the tested molecules for 16 h. […]
# For short-term effect evaluation, 4 hours prior to the glucose test, cells are washed and incubated in a serum-free medium (DMEM) containing 5.5 mM D-glucose and the tested molecules. Then glucose uptake is measured by incubation of the cells for 5-10 min with radiolabeled 2-deoxy-D-[1,2^3H] glucose in Krebs-Ringer HEPES buffer (KRBH; pH 7.4), 0.1% Bovine Serum Albumin (BSA), and fraction V (Sigma, A-4503). […] Cell-associated radioactivity is then counted and protein quantification is determined using the colorimetric Lowry method. Glucose uptake is estimated by measuring the radioactivity incorporated to the cells by a MicroBeta counter after adding 600 μL per well of scintillant (Optiphase SuperMix3).
# Protein quantification is performed by a colorimetric assay derived from the Lowry method. […]
# [5] = test system: differentiated 3T3-L1 adipocyte cells; experiment: Glucose uptake in 3T3-L1 adipocyte cells; format: cell-based; conditions: 3T3-L1 cells
# Procedure: 3T3-L1 preadipocyte cells were cultured in DMEM containing 1% penicillin-streptomycin (PS) and 10% bovine calf serum at 37° C. in a 5% CO2 atmosphere. […] Differentiation, as measured by the expression of adipogenic markers and the appearance of lipid droplets, usually reaches completion between days 4 and 8. Glucose uptake activity was analyzed by measuring the uptake of radiolabeled glucose. Differentiated 3T3-L1 adipocytes grown in 12-well plates were washed twice with serum-free DMEM and incubated for 2 h at 37° C. with 1 mL DMEM containing 0.1% BSA. […] Next, cells were incubated with or without drugs for different durations in order to evaluate their short-term and long-term effects. To evaluate their short-term effect, cells were incubated with drugs of the invention for 4 hours at 37° C. To evaluate the long-term effect of drugs of the invention, the day prior to the test, cells were pre-incubated with or without drugs for 16 h. The day after, prior to the test, cells were washed and incubated in the presence of the tested molecules for 4 h more. […] After 20 min, glucose uptake was terminated by washing the cells three times with cold PBS. The cells were lysed through incubation for 20 min at 37° C. with 0.7 mL of Triton X-100. Level of radioactivity in the cell lysates was determined using a scintillation counter. Protein quantification was performed by a colorimetric assay derived from the Lowry method.
# [6] = test system: hepatocytes; experiment: Glucose production by hepatic cells; format: cell-based, rat; conditions: 10 μM
# Procedure: Hepatocytes are isolated from 24 h-fasted male Wistar rats (200-250 g body weight) by ex situ liver perfusion in the presence of collagenase. Cell viability is validated by a trypan blue exclusion test. […] After plating, the medium is removed and cells are cultured for 16 h in RPMI medium without glucose (supplemented with the tested drugs for long-term evaluation). The following day, hepatic glucose production is assessed in Krebs-Ringer Bicarbonate HEPES buffer (KRBH; pH 7.4) in the presence of the neoglucogenic substrates (lactate 10 mM and pyruvate 1 mM) and the tested molecules for 4 h (short-term).
# Supernatants are collected and glucose concentrations are determined using a glucose oxidase kit (Instrumentation Laboratory 0018250840). In parallel, protein quantification is performed using the colorimetric Lowry method.
# Results are expressed in nmol glucose/mg protein and % of control condition (KLP: KRBH containing lactate and pyruvate).
# [7] = drugs combined at a dose as low as 10 nM, or used individually
# [8] = drugs combined at a dose as low as 3.3 nM, or used individually
# [9] = fenspiride 3.3 nM and metformin 100 μM
compound,measurement,setting,value
Nc1nc(N)c2nc(-c3ccccc3)c(N)nc2n1 [triamterene],enhancement of insulin secretion,"[1]; short-term pre-treatment, 10 μM",+37%
same,"enhancement of glucose uptake, combination experiment",[2]; [7],No significant effect
same,Percentage of apoptosis reduction,[3],64%
CN(C)CC[C@@H](c1ccc(Br)cc1)c1ccccn1 [dexbrompheniramine],Percentage of apoptosis reduction,[3],76%
CO[C@]12C[C@@H](COC(=O)c3cncc(Br)c3)CN(C)[C@@H]1Cc1cn(C)c3cccc2c13 [nicergoline],enhancement of glucose uptake,"[4]; long-term, 10 μM",+28%
same,Percentage of apoptosis reduction,[3],112%
O=C1NCC2(CCN(CCc3ccccc3)CC2)O1 [fenspiride],enhancement of glucose uptake,[2]; 0.37 nM,improvement
same,enhancement of glucose uptake,[2]; 1 nM,+130%
same,enhancement of glucose uptake,[2]; 3.3 nM,improvement
same,"enhancement of glucose uptake, combination experiment",[2]; [8],No significant effect
same,"enhancement of glucose uptake, combination experiment",[2]; [7],No significant effect
same,"enhancement of glucose uptake, combination with metformin",[2]; [9],does not lead to any significant improvement; also recorded: No significant effect
c1cnc(N2CCN(Cc3ccc4c(c3)OCO4)CC2)nc1 [piribedil],enhancement of glucose uptake,"[5]; short-term, 10 nM",+68%
Cc1ccc(C(=O)C(C)CN2CCCCC2)cc1 (stereo not shown) [tolperisone],Percentage of apoptosis reduction,[3],78%
Cc1cccc(C)c1OCC(C)N (stereo not shown) [mexiletine],Percentage of apoptosis reduction,[3],74%
C[C@@H]1CC(=O)NN=C1c1ccc(NN=C(C#N)C#N)cc1 [levosimendan],Percentage of apoptosis reduction,[3],118%
CN(C)C(=N)N=C(N)N [metformin],"enhancement of glucose uptake, combination with metformin",[2]; [9],does not lead to any significant improvement; also recorded: No significant effect
same,"enhancement of glucose uptake, combination with metformin",[2]; ifenprodil 3.3 nM and metformin 100 μM,does not lead to any significant improvement; also recorded: No significant effect
C[C@@H](NCCCc1cccc(C(F)(F)F)c1)c1cccc2ccccc12 [cinacalcet],enhancement of insulin secretion,"[1]; long-term pre-treatment, 1 μM",+55%
same,Percentage of apoptosis reduction,[3],167%
C=CCNc1nc(NCC=C)nc(N2CCN(C(c3ccc(F)cc3)c3ccc(F)cc3)CC2)n1 [almitrine],enhancement of glucose uptake,"[4]; short-term, 1 μM",+80%
same,enhancement of glucose uptake,"[5]; long-term, 1 μM",+69%
same,Percentage of apoptosis reduction,[3],103%
O=C[C@@H](O)[C@@H](O)[C@H](O)[C@H](O)CO [D-mannose],reduction of glucose production,[6]; short-term,−22%
same,Percentage of apoptosis reduction,[3],129%
CN1CCCC(n2nc(Cc3ccc(Cl)cc3)c3ccccc3c2=O)CC1 (stereo not shown) [azelastine],reduction of glucose production,[6]; long-term,−36%
same,Percentage of apoptosis reduction,[3],81%
Cc1cccc(Nc2ccncc2S(=O)(=O)NC(=O)NC(C)C)c1 [torasemide],enhancement of glucose uptake,[2]; 0.37 nM,+121%
same,enhancement of glucose uptake,[2]; 1 nM,+123%
same,enhancement of glucose uptake,[2]; 3.3 nM,+129%
same,Percentage of apoptosis reduction,[3],67%
NCC(CC(=O)O)c1ccc(Cl)cc1 (racemic) [baclofen],Percentage of apoptosis reduction,[3],84%
Cc1c(Cl)cccc1Nc1ccccc1C(=O)O [tolfenamic acid],enhancement of glucose uptake,[2]; 10 nM,+127%
same,enhancement of glucose uptake,[2]; 100 nM,improvement
same,enhancement of glucose uptake,[2]; 1 μM,improvement
same,"enhancement of glucose uptake, combination experiment",[2]; [8],No significant effect
same,"enhancement of glucose uptake, combination experiment",[2]; [7],No significant effect
CCN(CC)C(=O)N1CCN(C)CC1 [diethylcarbamazine],Percentage of apoptosis reduction,[3],44%
CCN(CC)CCOCCOC(=O)C1(c2ccccc2)CCCC1 [carbetapentane],enhancement of glucose uptake,"[5]; short-term, 0.1 μM (100 nM)",+58%
same,Percentage of apoptosis reduction,[3],103%
